Experimental data published in article PMC9254247, “Dual-sensitive antibacterial peptide nanoparticles prevent dental caries” (Theranostics, 2022).

Test system: S. mutans UA159 biofilm
Test: S. mutans biofilm treatment in vitro on glass slides
Assay type: cell-based, Streptococcus mutans
Settings: 55 μM; 10 min every 12 h, 3 times; confocal (Figure S10A-B)
Method: a concentration of 1×10^8 CFU/mL. pHly-1 NPs and CHX were diluted in BHI containing 1% sucrose to reach a series of concentration s and added to 96-well microplates (180 μL). Then, 2 μL S.mutans suspensions were seeded into 96-well microplates in the presence of different concentrations of pHly -1 NPs and CHX and the plate was incubated at 37 °C. After 24 h, the culture supernatants were gently discarded, and each well was rinsed three times with PBS (pH 7.0) to remove unattached bacteria. The bacterial viability was measured by methyl thiazol tetrazolium (MTT) assay. […] The MTT assay was performed to determined the minimum biofilm inhibition concentration (MBIC 50) by using the Microplate Reader at OD 490 nm 7. […]
S.mutans biofilm treatment in vitro, characterization and quantitative analysis.
Biofilms were formed on circular glass slides in a 24-well plate. […] B iofilms formed on glass slides were used for SEM, fluorescent staining and bacterial quantitative analyses. […]
For quantitative analysis9,10, after the treatment was finished, biofilms were removed from the glass slides and homogenized by water bath sonication followe d by probe sonication at an output of 7 W for 30 s (Branson Sonifier 150, Branson Ultrasonics). […] The effect of pHly- 1 NPs or CHX on biofilms was measured by counting the CFU of alive bacteria with agar plating after incubation for 48 h at 37 °C. […]

[H]/N=C(\N/C(=N/[H])NCCCCCCNC(=N)NC(=N)Nc1ccc(Cl)cc1)Nc1ccc(Cl)cc1 [CHX, chlorhexidine]
suppression effect on pre-formed biofilm: almost negligible
